Measurements published in patent US11083196B2, “Microbiocidal oxadiazole derivatives” (SYNGENTA PARTICIPATIONS AG, priority 2016, dated 2021).

What was measured:
[1] = system: Puccinia recondita f. sp. tritici; test: Fungicidal activity against Puccinia recondita f. sp. tritici / wheat / leaf disc preventative (brown rust); type: in vivo; details: foliar, 168 h, wheat leaf segments cv. Kanzler, inoculated 1 day after application, assessed 7-9 days after application, compared to untreated control
Protocol: Leaf disks or leaf segments of various plant species are cut from plants grown in a greenhouse. The cut leaf disks or segments are placed in multiwell plates (24-well format) onto water agar. The leaf disks are sprayed with a test solution before (preventative) or after (curative) inoculation. Compounds to be tested are prepared as DMSO solutions (max. 10 mg/ml) which are diluted to the appropriate concentration with 0.025% Tween20 just before spraying. The inoculated leaf disks or segments are incubated under defined conditions (temperature, relative humidity, light, etc.) according to the respective test system. A single evaluation of disease level is carried out 3 to 14 days after inoculation, depending on the pathosystem. Percent disease control relative to the untreated check leaf disks or segments is then calculated. Wheat leaf segments cv. Kanzler are placed on agar in multiwell plates (24-well format) and sprayed with the formulated test compound diluted in water. The leaf disks are inoculated with a spore suspension of the fungus 1 day after application. The inoculated leaf segments are incubated at 19° C. and 75% rh under a light regime of 12 h light/12 h darkness in a climate cabinet and the activity of a compound is assessed as percent disease control compared to untreated when an appropriate level of disease damage appears in untreated check leaf segments (7-9 days after application).

[2] = system: Glomerella lagenarium (Colletotrichum lagenarium); test: Fungicidal activity against Glomerella lagenarium (Colletotrichum lagenarium), liquid culture / cucumber / preventative (anthracnose); type: cell-based; details: Colletotrichum orbiculare, liquid culture (PDB), growth inhibition measured photometrically 3-4 days after application, compared to untreated control
Protocol: Mycelia fragments or conidia suspensions of a fungus, prepared either freshly from liquid cultures of the fungus or from cryogenic storage, are directly mixed into nutrient broth. DMSO solutions of the test compound (max. 10 mg/ml) is diluted with 0.025% Tween20 by a factor of 50 and 10 μl of this solution is pipetted into a microtiter plate (96-well format). The nutrient broth containing the fungal spores/mycelia fragments is then added to give an end concentration of the tested compound. The test plates are incubated in the dark at 24° C. and 96% relative humidity. The inhibition of fungal growth is determined photometrically after 2 to 7 days, depending on the pathosystem, and percent antifungal activity relative to the untreated check is calculated. Conidia of the fungus from cryogenic storage are directly mixed into nutrient broth (PDB potato dextrose broth). After placing a (DMSO) solution of test compound into a microtiter plate (96-well format), the nutrient broth containing the fungal spores is added. The test plates are incubated at 24° C. and the inhibition of growth is measured photometrically 3-4 days after application.

[3] = system: Puccinia recondita f. sp. tritici; test: Fungicidal activity against Puccinia recondita f. sp. tritici / wheat / leaf disc curative (brown rust); type: in vivo; details: foliar, 144 h, wheat leaf segments cv. Kanzler, applied 1 day after inoculation, assessed 6-8 days after application, compared to untreated control
Protocol: Leaf disks or leaf segments of various plant species are cut from plants grown in a greenhouse. The cut leaf disks or segments are placed in multiwell plates (24-well format) onto water agar. The leaf disks are sprayed with a test solution before (preventative) or after (curative) inoculation. Compounds to be tested are prepared as DMSO solutions (max. 10 mg/ml) which are diluted to the appropriate concentration with 0.025% Tween20 just before spraying. The inoculated leaf disks or segments are incubated under defined conditions (temperature, relative humidity, light, etc.) according to the respective test system. A single evaluation of disease level is carried out 3 to 14 days after inoculation, depending on the pathosystem. Percent disease control relative to the untreated check leaf disks or segments is then calculated. Wheat leaf segments cv. Kanzler are placed on agar in multiwell plates (24-well format). The leaf segments are inoculated with a spore suspension of the fungus. Plates are stored in darkness at 19° C. and 75% rh. The formulated test compound diluted in water is applied 1 day after inoculation. The leaf segments are incubated at 19° C. and 75% rh under a light regime of 12 h light/12 h darkness in a climate cabinet and the activity of a compound is assessed as percent disease control compared to untreated when an appropriate level of disease damage appears in untreated check leaf segments (6-8 days after application).

Row | melting point [°C] | SMILES | pest or weed control at 200 ppm [1] [%] | inhibition of growth at 20 ppm [2] [%] | pest or weed control at 200 ppm [3] [%]
1 |  | CC1=NOC(C)(c2ccc(-c3noc(C(F)(F)F)n3)cc2)C1 (stereo not drawn) [Compound A-13, 3-[4-(3,5-dimethyl-4H-isoxazol-5-yl)phenyl]-5-(trifluoromethyl)-1,2,4-oxadiazole] | ≥ 80 | ≥ 80 | ≥ 80
2 | 230 to 235 | O=C(Nc1cc(-c2ccc(-c3noc(C(F)(F)F)n3)cc2)ccn1)C(F)(F)F [Compound D-19, 2,2,2-trifluoro-N-[4-[4-[5-(trifluoromethyl)-1,2,4-oxadiazol-3-yl]phenyl]-2-pyridyl]acetamide] | ≥ 80 | ≥ 80 | 
3 |  | CC1(C)CC(=O)NC(c2ccc(-c3noc(C(F)(F)F)n3)cc2)O1 (stereo not drawn) [Compound A-11, 6,6-dimethyl-2-[4-[5-(trifluoromethyl)-1,2,4-oxadiazol-3-yl]phenyl]-1,3-oxazinan-4-one] | ≥ 80 | ≥ 80 | ≥ 80
4 |  | CCC(=O)N1CCCC1c1ccc(-c2noc(C(F)(F)F)n2)cc1 (stereo not drawn) [Compound A-37, 1-[2-[4-[5-(trifluoromethyl)-1,2,4-oxadiazol-3-yl]phenyl]pyrrolidin-1-yl]propan-1-one] |  | ≥ 80 | ≥ 80
5 | 94 to 97 | FC(F)(F)c1nc(-c2ccc(-c3ncco3)cc2)no1 [Compound C-3, 3-(4-oxazol-2-ylphenyl)-5-(trifluoromethyl)-1,2,4-oxadiazole] | ≥ 80 |  | ≥ 80
6 | 89 to 90 | Cc1csc(-c2ccc(-c3noc(C(F)(F)F)n3)cc2)n1 [Compound C-8, 3-[4-(4-methylthiazol-2-yl)phenyl]-5-(trifluoromethyl)-1,2,4-oxadiazole] |  | ≥ 80 | ≥ 80
7 |  | COC(=O)N1CCCC1c1ccc(-c2noc(C(F)(F)F)n2)cc1 (stereo not drawn) [Compound A-32, methyl 2-[4-[5-(trifluoromethyl)-1,2,4-oxadiazol-3-yl]phenyl]pyrrolidine-1-carboxylate] |  | ≥ 80 | ≥ 80
8 |  | O=C(N1CCCC1c1ccc(-c2noc(C(F)(F)F)n2)cc1)n1ccnc1 (stereo not drawn) [Compound A-35, imidazol-1-yl-[2-[4-[5-(trifluoromethyl)-1,2,4-oxadiazol-3-yl]phenyl]pyrrolidin-1-yl]methanone] | ≥ 80 | ≥ 80 | ≥ 80
9 | 141 to 175 | COCC(=O)NC1CSC(c2ccc(-c3noc(C(F)(F)F)n3)c(F)c2)=N1 (stereo not drawn) [Compound A-25, N-[2-[3-fluoro-4-[5-(trifluoromethyl)-1,2,4-oxadiazol-3-yl]phenyl]-4,5-dihydrothiazol-4-yl]-2-methoxy-acetamide] | ≥ 80 | ≥ 80 | 
10 | 144 to 155 | Cc1ccccc1C(=O)NC1CSC(c2ccc(-c3noc(C(F)(F)F)n3)c(F)c2)=N1 (stereo not drawn) [Compound A-23, N-[2-[3-fluoro-4-[5-(trifluoromethyl)-1,2,4-oxadiazol-3-yl]phenyl]-4,5-dihydrothiazol-4-yl]-2-methyl-benzamids] | ≥ 80 | ≥ 80 | 
11 |  | Cc1cc(-c2ccc(-c3noc(C(F)(F)F)n3)cc2)on1 [Compound C-11, 3-[4-(3-methylisoxazol-5-yl)phenyl]-5-(trifluoromethyl)-1,2,4-oxadiazole] | ≥ 80 |  | ≥ 80
12 |  | CC(C)(C)[S+]([O-])NC1CSC(c2ccc(-c3noc(C(F)(F)F)n3)c(F)c2)=N1 (stereo not drawn) [Compound A-26, N-[2-[3-fluoro-4-[5-(trifluoromethyl)-1,2,4-oxadiazol-3-yl]phenyl]-4,5-dihydro-thiazol-4-yl]-2-methyl-propane-2-sulfinamide] | ≥ 80 | ≥ 80 | ≥ 80
13 | 91 to 92 | FC(F)(F)c1nc(-c2ccc(-c3nc(CCl)cs3)cc2)no1 [Compound C-9, 3-[4-[4-(chloromethyl)thiazol-2-yl]phenyl]-5-(trifluoromethyl)-1,2,4-oxadiazole] | ≥ 80 | ≥ 80 | 
14 |  | COC(=O)C1CC(c2ccc(-c3noc(C(F)(F)F)n3)cc2)=NO1 (stereo not drawn) [Compound A-8, methyl 3-[4-[5-(trifluoromethyl)-1,2,4-oxadiazol-3-yl]phenyl]-4,5-dihydroisoxazole-5-carboxylate] | ≥ 80 | ≥ 80 | 
15 |  | COCC(=O)N1CCCC1c1ccc(-c2noc(C(F)(F)F)n2)cc1 (stereo not drawn) [Compound A-33, 2-methoxy-1-[2-[4-[5-(trifluoromethyl)-1,2,4-oxadiazol-3-yl]phenyl]pyrrolidin-1-yl]ethanone] | ≥ 80 | ≥ 80 | ≥ 80
16 |  | O=C(NC1CSC(c2ccc(-c3noc(C(F)(F)F)n3)c(F)c2)=N1)C1CC1 (stereo not drawn) [Compound A-22, N-[2-[3-fluoro-4-[5-(trifluoromethyl)-1,2,4-oxadiazol-3-yl]phenyl]-4,5-dihydrothiazol-4-yl]cyclopropanecarboxamide] |  | ≥ 80 | ≥ 80
17 |  | CC(=O)N1CCCC1c1ccc(-c2noc(C(F)(F)F)n2)cc1 (stereo not drawn) [Compound A-38, 1-[2-[4-[5-(trifluoromethyl)-1,2,4-oxadiazol-3-yl]phenyl]pyrrolidin-1-yl]ethanone] | ≥ 80 | ≥ 80 | ≥ 80
18 | 120 to 125 | CCNc1cccc(-c2ccc(-c3noc(C(F)(F)F)n3)cc2)n1 [Compound D-8, N-ethyl-6-[4-[5-(trifluoromethyl)-1,2,4-oxadiazol-3-yl]phenyl]pyridin-2-amine] |  | ≥ 80 | 
19 | 75 to 80 | Fc1cccc(-c2ccc(-c3noc(C(F)(F)F)n3)cc2)n1 [Compound D-5, 3-[4-(6-fluoro-2-pyridyl)phenyl]-5-(trifluoromethyl)-1,2,4-oxadiazole] |  | ≥ 80 | 
20 |  | CON(C)C(=O)N1CCCC1c1ccc(-c2noc(C(F)(F)F)n2)cc1 (stereo not drawn) [Compound A-31, N-methoxy-N-methyl-2-[4-[5-(trifluoromethyl)-1,2,4-oxadiazol-3-yl]phenyl]pyrrolidine-1-carboxamide] | ≥ 80 | ≥ 80 | ≥ 80
21 | 135 to 140 | Nc1cccc(-c2ccc(-c3noc(C(F)(F)F)n3)cc2)n1 [Compound D-15, 6-[4-[5-(trifluoromethyl)-1,2,4-oxadiazol-3-yl]phenyl]pyridin-2-amine] | ≥ 80 | ≥ 80 | 
22 | 154.4 to 158.5 | Cl.FC(F)(F)c1nc(-c2ccc(C3CCCN3)cc2)no1 (stereo not drawn) [Compound A-34, 3-(4-pyrrolidin-1-ium-2-ylphenyl)-5-(trifluoromethyl)-1,2,4-oxadiazole; chloride] | ≥ 80 |  | 
23 | 95 to 100 | FC(F)(F)c1nc(-c2ccc(-c3ccnc(N4CCOCC4)c3)cc2)no1 [Compound D-25, 4-[4-[4-[5-(trifluoromethyl)-1,2,4-oxadiazol-3-yl]phenyl]-2-pyridyl]morpholine] |  | ≥ 80 | 
